Target: Metabotropic glutamate receptor 2 (Homo sapiens, UniProt Q14416)
Sequence (Q14416 whole entry): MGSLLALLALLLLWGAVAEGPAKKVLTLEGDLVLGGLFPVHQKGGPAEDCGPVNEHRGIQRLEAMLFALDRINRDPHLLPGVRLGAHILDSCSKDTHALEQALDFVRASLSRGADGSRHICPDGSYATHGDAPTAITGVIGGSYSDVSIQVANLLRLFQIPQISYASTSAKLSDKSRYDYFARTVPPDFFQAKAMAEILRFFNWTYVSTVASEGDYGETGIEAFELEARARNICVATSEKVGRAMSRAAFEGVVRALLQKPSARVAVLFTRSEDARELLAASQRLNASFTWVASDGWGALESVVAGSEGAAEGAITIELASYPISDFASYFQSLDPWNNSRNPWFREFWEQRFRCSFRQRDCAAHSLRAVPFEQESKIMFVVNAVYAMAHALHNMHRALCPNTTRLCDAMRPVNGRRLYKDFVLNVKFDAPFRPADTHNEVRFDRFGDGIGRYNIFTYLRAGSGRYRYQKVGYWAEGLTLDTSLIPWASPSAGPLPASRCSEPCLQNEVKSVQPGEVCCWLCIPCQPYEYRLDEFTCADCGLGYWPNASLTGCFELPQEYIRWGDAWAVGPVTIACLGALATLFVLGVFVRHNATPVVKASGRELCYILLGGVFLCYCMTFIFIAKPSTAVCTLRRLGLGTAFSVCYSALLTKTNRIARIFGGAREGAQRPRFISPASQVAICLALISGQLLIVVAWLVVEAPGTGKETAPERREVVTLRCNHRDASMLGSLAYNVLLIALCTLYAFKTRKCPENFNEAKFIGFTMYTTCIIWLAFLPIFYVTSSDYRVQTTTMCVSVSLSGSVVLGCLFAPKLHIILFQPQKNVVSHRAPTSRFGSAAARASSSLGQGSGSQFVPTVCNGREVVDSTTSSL

Row | SMILES | Ki [nM]
1 | N[C@@H](CCP(=O)(O)O)C(=O)O | > 10000
2 | N[C@@]1(C(=O)O)CC[C@H](C(=O)O)C1 [1S, 3R-ACPD] | 2000
3 | N[C@@H](Cn1oc(=O)[nH]c1=O)C(=O)O [2-amino-3-(3,5-dioxo[1,2,4]oxadiazolidin-2-yl)propionic acid] | > 10000
4 | N[C@H](CP(=O)(O)O)C(=O)O [CAS_23052-80-4] | > 10000

Results, then the compound that gave them:

Row | Ki [nM] | SMILES
5 | > 10000 | C[C@@](N)(C(=O)O)c1ccc(C(=O)O)cc1 (racemic)
6 | 10 | NC(Cn1cnc2c(=O)[nH]c(=O)[nH]c21)(C(=O)O)C1CC1C(=O)O (centres undefined) [CAS_5311260]
7 | 60 | N[C@H](C(=O)O)C1[C@@H](C(=O)O)[C@@H]1C(=O)O (some centres undefined) [DCG-IV]
8 | 70 | N[C@H](C(=O)O)[C@H]1C[C@H]1C(=O)O [L-CCG-IV]
9 | > 10000 | C[C@](N)(C(=O)O)C1C[C@@H]1C(=O)O (some centres undefined) [MCCG-I]

Source: BindingDB's records for PubMed 9463480 (F. Hoffmann-La Roche, 1998)
